Data as given in US20190240502A1, “METHODS, COMPOSITIONS AND APPARATUSES FOR TREATING PSORIASIS BY PHOTOTHERAPY” (Luma Therapeutics, Inc., priority 2016, published 2019).

Type: physicochemical
Method: In forming the dressing shown in FIGS. 19A and 19B, the gel may be heat cured (e.g., at between 30-40° C. for between 1-4 hours, e.g., 2 hours at 35° C.). As will be described in more detail below, a very high salt (e.g., MgCl2), such as between 5% and 50% (weight of salt to weight of gel total) may be added to the hydrogel. For example 10% MgCl2 may be used which may help keep the coal tar globules or clusters from dissolving into the gel. […] In the context of the dressings described herein, a decrease in U.V. transmittance may require a longer treatment time (given that power output from the light cannot be increased) or may make treatment with the dressing impossible or impractical. […] Typically the greater the percentage of MgCl2 the better the effect. However, 5% or more may be sufficient; if longer shelf life for the dressings (e.g., beyond one week, two weeks, three weeks, on month, two months, three months, six months, 1 year, etc.) is desired higher MgCl2 percentages (e.g., 7.5%, 10%, or more) may be used.

solubility of coal tar	Compound	effect of additive on coal tar solubility in hydrogel
	[Cl-].[Cl-].[Mg+2] [MgCl2]	lower coal tar solubility
	OC[C@@H](O)[C@@H](O)[C@H](O)[C@@H](O)CO [Sorbitol, sorbitol]	increased solubility of coal tar in water
low solubility	coal tar	
